Test results reported in patent US20120178682A1, “GB1 Peptidic Compounds and Methods for Making and Using the Same” (priority 2010, published 2012).
Bridge positions count the residues as written; N and C are the ends. Square brackets hold non-standard residues; d marks the D form. Ends that are not written are not given here.

Assays:
D-VEGF [1] = experiment: Competition assay (phage ELISA) with VEGF binding peptides v114 and v128a on D-VEGF; conditions: 100 μM peptide; anti-M13-HRP detection
Procedure: (§1) To test whether the D-VEGF and L-VEGF binders have the potential to block VEGF-VEGFR1 interaction, a competition assay was performed using VEGF binding peptides v114 and v128a described by Fairbrother et al. (“Novel peptides selected to bind vascular endothelial growth factor target the receptor-binding site,” Biochemistry, 1998, 37, 17754-64). These peptides block the binding of VEGF to VEGFR1 and inhibit angiogenesis.
(§2) The peptides v114 ([…]-NH2; SEQ ID NO:296) and v128a ([…]-NH2; SEQ ID NO:297) were prepared in both D- and L-forms (CSBio, Inc.). The following protocol was used in the competitive binding assays: • 1. 5 wells of NUNC 96 well maxisorb plate were coated with D-VEGF (5 μg/ml in PBS) for testing clone E01. Similarly 5 wells were coated with L-VEGF (5 μg/ml in PBS) for each of E01 and B03. The plate was incubated at room temperature with gentle shaking for 2 hours; • 2. The plates were blocked with PBS+0.2% BSA (5 wells+1 extra well for control) for 1 hr at room temperature with gentle shaking; • 3. In the meantime, peptides were diluted in PBT buffer to a concentration of 150 μM; • 4. The plate was washed four times with PT buffer; • 5. 66 μl of each diluted peptide was added to 4 different wells coated with L or D-VEGF (depending on the clone tested). 66 μl of PBT was added to control wells (1 VEGF coated well+1 control well). Incubate for 30 min at room temperature with shaking; • 6. Add 33 μl of fresh phage supernatant from overnight culture to each of the six wells containing peptide solution. Incubate for 15 min at room temperature with shaking. • 7. Wash plate 6 times with PT buffer; • 8. Add 66 μl of anti-M13-HRP antibody (1:3000 dilution in PBT) to each well and incubate for 30 min at room temperature with shaking; • 9. Wash plate 4 times with PT buffer. Develop and read plates at 450 nm.
Phage binding to L and D-VEGF was tested in the presence and absence of 100 μM of each peptide (e.g., at 100 times affinity to saturate VEGF) using anti-M13-HRP to detect the bound phage.

D-VEGF [2] = experiment: SPR affinity measurements of GB1 peptidic compounds on immobilized D-VEGF; assay type: binding; conditions: target D-VEGF
Procedure: VEGF binding compounds were expressed. Binding affinities were measured using the […] SPR system. SPR analysis was performed on a ProteOn XPR36 Protein Interaction Array System (BioRad). Chemically synthesized L-VEGF, D-VEGF and VEGF165 (Peprotech) were immobilized in 50 mM Sodium Acetate (pH 5.5) to a non-dilute EDAC/sulfo-NHS activated GLC surface on separate channels using a flow rate of […] for 5 minutes in the vertical direction. Immobilization levels were monitored to ensure immobilization of approximately 500 response units of each protein. The domains were then stabilized with PBS for 30 seconds and 0.85% H3PO4 for 18 seconds each at […]. GB1 variants were diluted in PBS plus 0.05% Tween 20 at a starting concentration of 200 nM. The binders were further diluted with PBST 2-fold in series to produce 5 concentrations of variants. A PBST blank was also included. GB1 variant injection parameters were: […], 60 seconds contact time, and 600 seconds dissociation time, in the horizontal direction. VEGF proteins were regenerated with an injection of 0.85% H3PO4 at a flow rate of […] followed by a PBST wash of 30 seconds at […] flow rate.

D-VEGF [3] = experiment: Phage ELISA after overnight incubation with GuHCl or urea; assay type: binding; conditions: various concentrations of urea or GuHCl; phage incubated overnight
Procedure: During screening for specific binding to target, the presence of a chaotropic agent/denaturant can help select clones with improved stability and affinity. Phage were incubated overnight in the presence of various concentrations of GuHCl and urea and assayed using an ELISA method. […] Various concentrations GuHCl were added to selection wells prior to elution with 100 mM HCl. The selected clones were identified by competitive ELISA and analyzed for IC50 using similar protocols to those described above.

[4] = Melting temperature (Tm) by circular dichroism (CD); assay type: physicochemical; conditions: chemically synthesized compound; CD spectroscopy
Excerpt: 4.3 Determination of Melting Temperature (Tm) by Circular Dichroism (CD)

L-VEGF = biological target: T1, L-VEGF (Homo sapiens, UniProt P15692); experiment: Competition assay (phage ELISA) with VEGF binding peptides v114 and v128a on L-VEGF; conditions: 100 μM peptide; anti-M13-HRP detection
T1 construct: Synthetic L-VEGF-A (8-109) was folded under the following conditions; made in house; host or cells: total chemical synthesis (SPPS plus native chemical ligation), no expression host
T1 sequence (P15692 214-315): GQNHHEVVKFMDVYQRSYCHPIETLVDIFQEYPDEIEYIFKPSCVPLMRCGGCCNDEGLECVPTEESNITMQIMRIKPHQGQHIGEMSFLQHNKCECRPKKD
Procedure: as §1
as §2, with “Incubate for 30 min at room temperature with shaking; • 6. Add 33 μl of fresh phage supernatant from overnight culture to each of the six wells containing peptide solution. Incubate for 15 min at room temperature with shaking. • 7. Wash plate 6 times with PT buffer; • 8. Add 66 μl of anti-M13-HRP antibody (1:3000 dilution in PBT) to each well and incubate for 30 min at room temperature with shaking; • 9. Wash plate 4 times with PT buffer.” left out, “nm. […]” for “nm.”

[5] = Table 2, GB1-E01 double mutants

In the case of “E01: pre-affinity matured parent D-VEGF binding GB1 clone, SEQ ID NO:79 (TYKLILNGKTLKGETTTEAVDVYDAFDVFFVYAASNFSDFDDWTYDDATKTFTVTE) [Clone E01]”, the “phage binding to D-VEGF in the presence of D-v114” value (D-VEGF [1]) is reported as “completely blocked”, the “phage binding to D-VEGF in the presence of D-v128a” value (D-VEGF [1]) is reported as “partially blocked” and the “phage binding to D-VEGF in the presence of L-peptides (L-v114, L-v128a)” value (D-VEGF [1]) is reported as “do not inhibit”. The Kd (D-VEGF [2]; Table 1) was 13.4 nM, the Koff (D-VEGF [2]; Table 1) was 0.00347 s⁻¹ and the Kon (D-VEGF [2]; Table 1, E01 point mutants expressed in E. coli) was 260000 M⁻¹ s⁻¹. It also gave a Kd (D-VEGF [2]; [5]) of 3.46 nM, a Koff (D-VEGF [2]; [5]) of 0.00117 s⁻¹ and a Kon (D-VEGF [2]; [5]) of 338000 M⁻¹ s⁻¹.
In the case of “TYKLILNGKTLKGEFTLEAVDLFDAFDVFFVYAASNFSFFDDWTYDDATKTFTVTE ([dT][dY][dK][dL][dI][dL][dN]G[dK][dT][dL][dK]G[dE][dF][dT][dL][dE][dA][dV][dD][dL][dF][dD][dA][dF][dD][dV][dF][dF][dV][dY][dA][dA][dS][dN][dF][dS][dF][dF][dD][dD][dW][dT][dY][dD][dD][dA][dT][dK][dT][dF][dT][dV][dT][dE]; not fully specified) [RFX025]”, the “binding to D-VEGF in presence of denaturant” value (D-VEGF [3]) is reported as “bind specifically” and the “melting temperature (Tm)” value [4] is reported as 66.6 °C.
With “TYKLILNGKTLKGETTTEAVDFYYAFSVFFSYASSNSSDYVSWTYDDATKTFTVTE [Clone B03]” the “phage binding to L-VEGF in the presence of D-peptides (D-v114, D-v128a)” value (L-VEGF) was “do not inhibit”.
For “TYKMILNGKTLKSECTTEAVDLFDAFDVLFVCAASNFSFIDDWTYDDATKTFTVTE ([dT][dY][dK][dM][dI][dL][dN]G[dK][dT][dL][dK][dS][dE][dC][dT][dT][dE][dA][dV][dD][dL][dF][dD][dA][dF][dD][dV][dL][dF][dV][dC][dA][dA][dS][dN][dF][dS][dF][dI][dD][dD][dW][dT][dY][dD][dD][dA][dT][dK][dT][dF][dT][dV][dT][dE]; disulfide 15-32 (inferred); not fully specified) [RFX002]”, the “binding to D-VEGF in presence of denaturant” value (D-VEGF [3]) was “bind specifically” and the “melting temperature (Tm)” value [4] was 66.9 °C.
